Consider seven compounds from ChEMBL document CHEMBL1201862, “PubChem BioAssay data set” (2004).

SMILES strings stand for the structures. The source made the active and inactive calls. Where only a bound is given, the exact number is not on record here.

The nature of experiment [1]: viability of uninfected HEp-2 cells – cell-based, HTS, cytotoxicity control for RSV inhibitor project, dose response (AID 2410). Type of experiment: functional. The settings on record: human respiratory syncytial virus.
Experiment [2] has as its target Heat shock protein HSP 90-alpha (Homo sapiens, UniProt P07900). Type of experiment: functional, organism-based.
Experiment [3] deals with Voltage-gated inwardly rectifying potassium channel KCNH2 (Homo sapiens, UniProt Q12809). The settings on record: Potency.
Experiment [4] addresses T1, Polyadenylate-binding protein 1 (Homo sapiens, UniProt P11940). The experiment in a line: MLLE binding blockers, Cy5 peptide tracer – biochemical, fluorescence polarization, Cy5-PAM2 peptide, secondary, miRNA deadenylation inhibitor project, dose response (AID 602260). Type of experiment: functional. As to conditions: read-out: IC50_Mean.
Experiment [5] is described as follows: reduction of Shn3 3'UTR-driven luciferase in osteoblasts – cell-based, Clone20 osteoblasts, firefly luciferase, cherry-picked, dose response (AID 624132).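 Further: firefly luciferase luminescence from reporter carrying the Shn3 3'UTR in osteoblasts.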 It is filed as functional.
The target of experiment [6] is T1, Polyadenylate-binding protein 1. The experiment in a line: MLLE domain peptide-binding blockers, IC50 – biochemical, fluorescence polarization, FITC-PAM2 peptide, dose response (AID 602259). Type of experiment: functional. The settings on record: read-out: IC50_Mean.
The nature of experiment [7]: loss of viability in HepG2 cells – cell-based, CellTiter-Glo, cherry-picked, cytotoxicity control for Shn3 inhibitor project, dose response (AID 624134). Type of experiment: functional.
Experiment [8] in a line: non-specific 3'UTR reporter inhibition in Clone20-Shn3RL – cell-based, Renilla luciferase, cherry-picked, counter-screen for Shn3 inhibitor project, dose response (AID 624133). It is filed as functional.
Experiment [9] deals with HEK293. In words: cells. As to conditions: Homo sapiens.
Experiment [10] deals with HEK293. In words: cells. The settings on record: Homo sapiens. The source holds these as a separate data set.
Experiment [11] concerns the target T2, Microphthalmia-associated transcription factor (Homo sapiens, UniProt O75030).
T2 sequence (O75030 whole entry): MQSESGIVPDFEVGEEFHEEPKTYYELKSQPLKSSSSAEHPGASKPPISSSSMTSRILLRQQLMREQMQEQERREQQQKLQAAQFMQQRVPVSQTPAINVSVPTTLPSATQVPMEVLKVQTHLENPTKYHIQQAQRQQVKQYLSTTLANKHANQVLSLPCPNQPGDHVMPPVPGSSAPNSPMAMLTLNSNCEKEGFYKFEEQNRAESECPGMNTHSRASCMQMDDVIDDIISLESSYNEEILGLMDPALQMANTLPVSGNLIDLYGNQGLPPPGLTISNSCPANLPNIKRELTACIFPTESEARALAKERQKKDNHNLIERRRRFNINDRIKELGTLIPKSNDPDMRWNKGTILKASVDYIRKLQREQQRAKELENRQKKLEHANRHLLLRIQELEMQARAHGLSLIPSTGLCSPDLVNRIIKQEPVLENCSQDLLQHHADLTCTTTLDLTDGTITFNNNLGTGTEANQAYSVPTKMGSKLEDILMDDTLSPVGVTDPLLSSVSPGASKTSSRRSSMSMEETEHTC
In words: reducers of TRPM1 reporter luminescence, concentration series – cell-based, SK-MEL-5, cherry-picked, set 3, MITF inhibitor project, dose response (AID 493073).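 Further: SK-MEL-5 melanoma cells with luciferase driven by the MITF target TRPM1 promoter.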 Type of experiment: functional.

Another experiment concerns INS1. The experiment in a line: INS-1E survival protection against cytokine death – cell-based, luminescence, retest, dose response (AID 449756).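 Further: cell death triggered by IL-1 beta plus TNF-alpha plus IFN-gamma mixture; protective hits raise ATP signal compared with cytokine alone wells.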 Type of experiment: functional. The settings on record: Rattus norvegicus.
The next experiment has as its system A-375. In words: proliferation inhibition in MITF-low A375 cells – cell-based, cherry-pick samples, set 2, counter-screen for MITF modulator project, dose response (AID 540335). Type of experiment: functional. The settings on record: Homo sapiens.
A short description of experiment [12]: reduced cellular PGC1a acetyl-lysine signal – cell-based, cherry-picked samples, dose response (AID 720514).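 Further: potency may reflect raised or lowered acetylation signal.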 It is filed as functional.
For experiment [13], the target named is T3, Sentrin-specific protease 8 (Homo sapiens, UniProt Q96LD8).
T3 sequence (Q96LD8 whole entry): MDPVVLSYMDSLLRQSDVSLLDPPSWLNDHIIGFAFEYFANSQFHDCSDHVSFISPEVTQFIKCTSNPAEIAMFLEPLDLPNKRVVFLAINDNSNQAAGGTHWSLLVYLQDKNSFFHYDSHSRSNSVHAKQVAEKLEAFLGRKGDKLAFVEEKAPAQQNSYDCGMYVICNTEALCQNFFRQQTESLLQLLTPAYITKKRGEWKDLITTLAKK
In words: inhibition of human SENP8 cleavage activity – biochemical, luminescence, SAR follow-up (AID 504501). Type of experiment: functional.

The target of experiment [14] is T4, Caspase-3 (Homo sapiens, UniProt P42574).
T4 sequence (P42574 whole entry): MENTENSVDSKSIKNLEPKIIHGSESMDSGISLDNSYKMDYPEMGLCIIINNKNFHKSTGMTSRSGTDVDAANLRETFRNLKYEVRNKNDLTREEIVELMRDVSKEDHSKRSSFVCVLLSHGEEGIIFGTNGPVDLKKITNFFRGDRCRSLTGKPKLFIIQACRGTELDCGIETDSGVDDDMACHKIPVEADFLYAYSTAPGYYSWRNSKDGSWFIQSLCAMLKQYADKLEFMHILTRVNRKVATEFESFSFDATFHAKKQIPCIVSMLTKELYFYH
The experiment in a line: inhibition of recombinant caspase-3 activity – biochemical, luminescence, set 2, selectivity assay for SENP protease inhibitor project, SAR follow-up (AID 588599). It is filed as functional.

Experiment [15] addresses T3, Sentrin-specific protease 8. In words: inhibition of sentrin protease 8 – biochemical, luminescence, set 2, SAR follow-up (AID 588601). Type of experiment: functional.
The target in experiment [16] is T4, Caspase-3. The experiment in a line: SAR Analysis of small molecule inhibitors of Sentrin-specific proteases (SENPs) using a Caspase-3 Selectivity assay. [Related pubchem assays (depositor defined):AID2540, AID2599, AID434973, AID489001]. Type of experiment: functional.
The target in experiment [17] is T5, Sentrin-specific protease 7 (Homo sapiens, UniProt Q9BQF6).
T5 sequence (Q9BQF6 whole entry): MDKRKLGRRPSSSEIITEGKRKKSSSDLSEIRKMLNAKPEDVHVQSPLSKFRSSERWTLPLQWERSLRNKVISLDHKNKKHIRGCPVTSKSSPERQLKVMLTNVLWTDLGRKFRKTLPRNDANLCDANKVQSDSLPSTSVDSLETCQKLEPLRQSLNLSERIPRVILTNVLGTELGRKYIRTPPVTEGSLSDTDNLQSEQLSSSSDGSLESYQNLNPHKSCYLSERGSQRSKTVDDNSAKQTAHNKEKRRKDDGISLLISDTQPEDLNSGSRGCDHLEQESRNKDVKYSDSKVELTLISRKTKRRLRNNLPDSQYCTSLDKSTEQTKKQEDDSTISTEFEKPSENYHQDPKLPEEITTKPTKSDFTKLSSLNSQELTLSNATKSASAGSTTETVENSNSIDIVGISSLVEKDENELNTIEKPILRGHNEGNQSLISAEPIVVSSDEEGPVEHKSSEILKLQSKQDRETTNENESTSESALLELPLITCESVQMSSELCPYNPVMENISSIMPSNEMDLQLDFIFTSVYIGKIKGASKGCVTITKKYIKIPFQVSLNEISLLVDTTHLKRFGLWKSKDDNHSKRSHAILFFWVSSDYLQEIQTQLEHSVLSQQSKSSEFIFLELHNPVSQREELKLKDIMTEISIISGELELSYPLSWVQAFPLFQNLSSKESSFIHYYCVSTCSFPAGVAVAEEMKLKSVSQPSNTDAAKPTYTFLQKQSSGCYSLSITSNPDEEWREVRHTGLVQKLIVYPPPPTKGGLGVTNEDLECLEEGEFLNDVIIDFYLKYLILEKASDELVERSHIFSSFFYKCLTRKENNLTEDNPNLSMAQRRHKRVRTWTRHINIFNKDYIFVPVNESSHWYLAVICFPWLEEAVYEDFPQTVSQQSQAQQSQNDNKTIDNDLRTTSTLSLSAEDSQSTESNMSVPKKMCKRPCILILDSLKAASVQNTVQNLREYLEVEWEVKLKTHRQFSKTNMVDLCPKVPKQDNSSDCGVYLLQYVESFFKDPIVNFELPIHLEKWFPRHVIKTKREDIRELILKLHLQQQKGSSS
The experiment in a line: inhibition of human SENP7 cleavage activity – biochemical, luminescence, set 2, SAR follow-up (AID 588600). Type of experiment: functional.

Experiment [18] concerns the target T6, Sentrin-specific protease 6 (Homo sapiens, UniProt Q9GZR1).
T6 sequence (Q9GZR1 whole entry): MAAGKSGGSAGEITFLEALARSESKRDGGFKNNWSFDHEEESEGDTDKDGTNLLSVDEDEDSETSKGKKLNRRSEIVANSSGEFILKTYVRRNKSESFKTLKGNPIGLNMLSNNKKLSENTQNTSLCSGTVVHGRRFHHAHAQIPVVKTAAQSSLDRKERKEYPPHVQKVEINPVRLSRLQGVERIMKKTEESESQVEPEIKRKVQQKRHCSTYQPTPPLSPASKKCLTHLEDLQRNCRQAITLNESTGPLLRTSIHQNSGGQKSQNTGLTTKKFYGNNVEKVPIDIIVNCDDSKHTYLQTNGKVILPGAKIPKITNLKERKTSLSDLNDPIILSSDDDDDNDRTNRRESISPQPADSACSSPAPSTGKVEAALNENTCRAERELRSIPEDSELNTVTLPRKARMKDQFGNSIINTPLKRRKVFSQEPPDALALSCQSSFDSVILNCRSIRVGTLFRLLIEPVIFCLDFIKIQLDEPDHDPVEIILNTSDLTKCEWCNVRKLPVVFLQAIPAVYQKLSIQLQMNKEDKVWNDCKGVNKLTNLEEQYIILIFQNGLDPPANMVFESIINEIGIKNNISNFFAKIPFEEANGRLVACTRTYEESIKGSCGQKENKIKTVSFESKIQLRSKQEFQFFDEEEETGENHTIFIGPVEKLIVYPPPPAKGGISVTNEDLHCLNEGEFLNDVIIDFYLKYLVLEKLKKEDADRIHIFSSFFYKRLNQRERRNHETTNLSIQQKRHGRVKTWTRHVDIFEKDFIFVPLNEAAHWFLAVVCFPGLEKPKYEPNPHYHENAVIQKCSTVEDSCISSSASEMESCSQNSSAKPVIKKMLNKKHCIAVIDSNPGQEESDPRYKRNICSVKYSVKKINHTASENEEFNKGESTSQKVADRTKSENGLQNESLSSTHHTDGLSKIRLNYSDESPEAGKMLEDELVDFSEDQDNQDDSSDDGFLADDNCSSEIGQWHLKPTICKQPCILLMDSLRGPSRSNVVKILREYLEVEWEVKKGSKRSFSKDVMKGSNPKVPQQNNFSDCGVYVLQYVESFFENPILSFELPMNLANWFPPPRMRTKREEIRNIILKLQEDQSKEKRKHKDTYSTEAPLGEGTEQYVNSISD
The experiment in a line: SAR Analysis of small molecule inhibitors of Sentrin-specific protease 6 (SENP6) using a Luminescent assay. [Related pubchem assays (depositor defined):AID2582, AID2599]. Type of experiment: functional.

Experiment [19] has as its target T6, Sentrin-specific protease 6. In words: inhibition of human SENP6 catalytic domain – biochemical, luminescence, set 2, SAR follow-up (AID 588598). Type of experiment: functional.
For experiment [20], the target named is T5, Sentrin-specific protease 7. The experiment in a line: inhibition of human SENP7 cleavage activity – biochemical, luminescence, SAR follow-up (AID 504497). Type of experiment: functional.
The next experiment concerns the target Beta-galactosidase (Escherichia coli, UniProt Q8VNN2). In words: detection-enzyme interference by beta-gal modulators – biochemical, E. coli enzyme, set 3, artefact control for CCR6 antagonist project, dose response (AID 504712). It is filed as functional.
Another experiment deals with Vero. In words: cells. The settings on record: Chlorocebus sabaeus. Type of experiment: functional.
Another experiment addresses Cytochrome P450 3A4 (Homo sapiens, UniProt P08684).

Sequence of Voltage-gated inwardly rectifying potassium channel KCNH2 (Q12809 whole entry): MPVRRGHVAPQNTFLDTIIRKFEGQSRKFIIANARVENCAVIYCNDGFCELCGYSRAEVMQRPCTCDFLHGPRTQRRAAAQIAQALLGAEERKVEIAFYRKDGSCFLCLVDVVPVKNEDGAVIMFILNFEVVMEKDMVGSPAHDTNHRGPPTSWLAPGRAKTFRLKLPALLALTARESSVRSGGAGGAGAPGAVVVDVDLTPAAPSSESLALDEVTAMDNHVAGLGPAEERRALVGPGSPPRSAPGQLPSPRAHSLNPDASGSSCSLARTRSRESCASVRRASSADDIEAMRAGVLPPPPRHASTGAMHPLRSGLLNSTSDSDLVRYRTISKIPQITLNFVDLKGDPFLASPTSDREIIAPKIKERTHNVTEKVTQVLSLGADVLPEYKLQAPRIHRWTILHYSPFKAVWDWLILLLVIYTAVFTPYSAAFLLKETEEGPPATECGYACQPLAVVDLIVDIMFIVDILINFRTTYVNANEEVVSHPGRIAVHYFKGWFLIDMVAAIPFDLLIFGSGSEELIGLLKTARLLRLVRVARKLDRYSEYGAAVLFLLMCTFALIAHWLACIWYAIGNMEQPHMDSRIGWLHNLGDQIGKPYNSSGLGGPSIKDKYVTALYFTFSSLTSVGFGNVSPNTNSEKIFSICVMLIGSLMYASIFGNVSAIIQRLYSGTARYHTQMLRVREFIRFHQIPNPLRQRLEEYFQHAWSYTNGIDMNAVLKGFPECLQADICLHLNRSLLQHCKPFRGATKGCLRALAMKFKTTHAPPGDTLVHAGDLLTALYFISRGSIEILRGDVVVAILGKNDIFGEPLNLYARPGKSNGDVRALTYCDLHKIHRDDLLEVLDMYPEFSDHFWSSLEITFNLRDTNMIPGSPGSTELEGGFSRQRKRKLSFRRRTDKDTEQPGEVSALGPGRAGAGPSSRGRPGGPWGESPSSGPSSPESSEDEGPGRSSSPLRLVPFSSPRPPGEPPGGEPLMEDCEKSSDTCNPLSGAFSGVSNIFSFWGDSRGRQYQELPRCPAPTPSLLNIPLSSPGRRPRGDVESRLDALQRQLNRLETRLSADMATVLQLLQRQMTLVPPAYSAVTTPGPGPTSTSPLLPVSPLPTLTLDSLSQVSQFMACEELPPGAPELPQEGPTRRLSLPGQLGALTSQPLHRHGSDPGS
T1 sequence (P11940 whole entry): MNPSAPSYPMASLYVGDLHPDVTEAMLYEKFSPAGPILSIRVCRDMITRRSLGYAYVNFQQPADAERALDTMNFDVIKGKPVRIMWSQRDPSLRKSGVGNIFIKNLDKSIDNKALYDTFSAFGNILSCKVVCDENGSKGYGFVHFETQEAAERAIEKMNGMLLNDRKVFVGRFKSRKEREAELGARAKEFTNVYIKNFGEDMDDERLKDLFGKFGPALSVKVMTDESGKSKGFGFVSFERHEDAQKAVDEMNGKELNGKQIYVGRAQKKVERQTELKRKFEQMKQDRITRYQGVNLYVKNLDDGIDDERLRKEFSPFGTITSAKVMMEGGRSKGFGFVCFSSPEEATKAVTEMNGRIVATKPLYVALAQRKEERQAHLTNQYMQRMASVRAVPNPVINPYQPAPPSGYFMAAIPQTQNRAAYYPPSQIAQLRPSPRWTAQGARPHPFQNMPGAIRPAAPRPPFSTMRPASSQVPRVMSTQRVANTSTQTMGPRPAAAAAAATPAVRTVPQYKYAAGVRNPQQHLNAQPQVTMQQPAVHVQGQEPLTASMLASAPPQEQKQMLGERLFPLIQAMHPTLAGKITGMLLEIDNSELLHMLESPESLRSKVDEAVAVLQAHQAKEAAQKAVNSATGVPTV
Sequence of Beta-galactosidase (Q8VNN2 whole entry): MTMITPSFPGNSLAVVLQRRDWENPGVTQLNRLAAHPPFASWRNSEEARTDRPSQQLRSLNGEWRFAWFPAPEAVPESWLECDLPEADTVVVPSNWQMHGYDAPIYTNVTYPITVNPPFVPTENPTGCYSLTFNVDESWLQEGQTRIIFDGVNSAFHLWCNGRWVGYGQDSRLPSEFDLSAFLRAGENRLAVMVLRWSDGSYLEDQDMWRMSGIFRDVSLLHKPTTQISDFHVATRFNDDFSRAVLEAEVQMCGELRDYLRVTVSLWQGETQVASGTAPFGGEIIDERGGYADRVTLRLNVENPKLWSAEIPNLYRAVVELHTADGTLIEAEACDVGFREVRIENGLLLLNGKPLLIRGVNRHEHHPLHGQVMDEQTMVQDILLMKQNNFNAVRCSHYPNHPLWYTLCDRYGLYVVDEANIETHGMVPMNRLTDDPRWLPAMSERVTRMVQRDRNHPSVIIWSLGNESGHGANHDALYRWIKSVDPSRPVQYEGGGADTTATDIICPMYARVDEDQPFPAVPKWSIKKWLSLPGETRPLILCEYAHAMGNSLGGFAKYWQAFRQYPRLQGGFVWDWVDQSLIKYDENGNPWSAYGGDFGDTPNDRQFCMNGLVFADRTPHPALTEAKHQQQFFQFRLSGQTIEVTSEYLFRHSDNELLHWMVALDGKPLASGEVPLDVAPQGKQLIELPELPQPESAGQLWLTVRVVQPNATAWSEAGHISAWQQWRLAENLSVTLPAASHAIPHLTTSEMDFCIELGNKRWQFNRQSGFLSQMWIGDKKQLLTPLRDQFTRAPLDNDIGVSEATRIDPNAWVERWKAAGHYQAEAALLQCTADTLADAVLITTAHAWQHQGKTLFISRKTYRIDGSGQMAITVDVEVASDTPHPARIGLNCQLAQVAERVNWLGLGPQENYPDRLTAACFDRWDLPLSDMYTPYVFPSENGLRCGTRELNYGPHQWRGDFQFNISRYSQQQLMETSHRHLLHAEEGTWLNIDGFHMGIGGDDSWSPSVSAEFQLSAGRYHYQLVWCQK
Sequence of Cytochrome P450 3A4 (P08684 whole entry): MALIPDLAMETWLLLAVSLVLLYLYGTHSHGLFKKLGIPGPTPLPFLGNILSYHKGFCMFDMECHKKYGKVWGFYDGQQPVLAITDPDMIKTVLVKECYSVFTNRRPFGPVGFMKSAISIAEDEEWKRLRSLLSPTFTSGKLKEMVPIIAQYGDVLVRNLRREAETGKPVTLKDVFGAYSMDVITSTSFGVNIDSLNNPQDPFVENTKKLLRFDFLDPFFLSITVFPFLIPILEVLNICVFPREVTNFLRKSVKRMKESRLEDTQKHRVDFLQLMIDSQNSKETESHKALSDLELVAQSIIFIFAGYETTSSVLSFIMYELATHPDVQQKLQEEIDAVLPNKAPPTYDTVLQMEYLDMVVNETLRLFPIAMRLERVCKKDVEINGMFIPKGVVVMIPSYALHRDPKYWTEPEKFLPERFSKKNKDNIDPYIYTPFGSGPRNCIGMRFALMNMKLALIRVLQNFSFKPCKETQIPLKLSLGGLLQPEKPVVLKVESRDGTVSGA

Consider `CCCCCCCCCCCCCCCC(=O)OC(CC(=O)O)C[N+](C)(C)C` (stereo not drawn), for which the CC50 in [1] was 23.7 µM (active). Besides, the values for the AC50 in experiment [2] and in experiment [3] were 1.39 µM (active) and 35.5 µM (inconclusive), respectively.

With `COc1ccc(OC)c(/C=C/C(=O)N2C(=O)c3cccc(N)c3C2=O)c1`, the IC50 in experiment [4] and in experiment [6] was > 66 µM (inactive) each time. Further, the AC50 in experiment [5] is 3.25 µM (active); in experiment [7], 58.5 µM (active); in experiment [8], 26.6 µM (active). For the same compound, the EC50 with HEK293 [9] and with HEK293 [10] was > 59.7 µM (inactive) in each case.

Consider `COc1cc(NC(=O)c2[nH]cnc2C(N)=O)cc(C(=O)Nc2cccc(C(F)(F)F)c2)c1`, for which the AC50 in experiment [11] was 10.9 µM (active); with INS1 it was 3.48 µM (active); in the experiment on A-375 it was 17 µM (active); in experiment [12] it was 6.34 µM (active).

Take `Cc1csc(C(=O)Nc2nc3ccccc3s2)c1`: the IC50 in experiment [13] is 3.2 µM (active); on Caspase-3 [14], 34 µM (active); in experiment [15] it was 21.4 µM (active); on Caspase-3 [16] it was 3.6 µM (active); in experiment [17], 19.2 µM (active); in [18] it was 2.8 µM (active). Moreover, the IC50 in experiment [19] is 23.4 µM (active); in experiment [20], 1.8 µM (active).

For the compound `Cc1ccccc1-c1noc(/C(C#N)=C\c2ccc3c(c2)OCCO3)n1`, the IC50 at Caspase-3 [14] is 2.16 µM (active); in [15], > 99 µM (inactive); in experiment [17], 5.42 µM (active); in experiment [19] it was 4.82 µM (active).

Turning to `O=C1Nc2ccc(Br)cc2/C1=C/C(=O)c1ccccc1`, the IC50 on Beta-galactosidase was > 66.6 µM (inactive). Also, the AC50 in [2] is 0.986 µM (active). For the same compound, in the experiment on Vero, the CC50 was 19.1 µM (active). The EC50 in the experiment on HEK293 [9] and with HEK293 [10] was > 59.6 µM (inactive) each time.

Take `[Cl-].[Li+]` [CHLOROLITHIUM]: the AC50 on Cytochrome P450 3A4 is 31.6 µM (inconclusive); in [3], 6.31 µM (inconclusive).
